In PubChem BioAssay AID1963844 (Molecular Pharmacology Branch, DTP, NCI, 2024):

Tested on: 422866-222-R5-J1-PDC complex spheroid viability
Assay: Anticancer human tumor 422866-222-R5-J1-PDC patient-derived pancreatic adenocarcinoma cell line growth inhibition [POLQ]
Details: for IC50: curve of first compound; for viability, T/C: stronger effect = lower value
Method in brief: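 Growth inhibition in 3D: complex spheroids (tumor PDC, HUVEC, MSC) treated with POLQ inhibitor combinations; where Cmax unknown, highest tested concentration 10 microM, except SN-38 at 1 microM.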
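Note: spheroids exposed to compounds for one week before readout.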
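Throughout, for viability, T/C: percent of DMSO vehicle wells luminescence so 100% = untreated viability.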

`CC(=O)O[C@H]1C(=O)[C@@]2(C)[C@H]([C@H](OC(=O)c3ccccc3)[C@]3(O)C[C@H](OC(=O)[C@H](O)[C@@H](NC(=O)c4ccccc4)c4ccccc4)C(C)=C1C3(C)C)[C@]1(OC(C)=O)CO[C@@H]1C[C@@H]2O` + Nc1ccc(C#CCN(C(=O)Cc2ncc(C(F)(F)F)cc2C(F)(F)F)c2ccc(F)cc2)nn1 gave an IC50 (second compound 0.0316 µM) greater than 3 µM, an IC50 (second compound 0.1 µM) greater than 3 µM and an IC50 (second compound 0.316 µM) of less than 0.00949 µM. The IC50 (second compound 1 µM) was greater than 3 µM, the IC50 (second compound 3.16 µM) was less than 0.00949 µM and the IC50 (second compound 10 µM) was greater than 3 µM. It also gave a viability, T/C (second compound 0.0316 µM, first compound 0.00949 µM) of 60.5%, a viability, T/C (second compound 0.0316 µM, first compound 0.03 µM) of 56% and a viability, T/C (second compound 0.0316 µM, first compound 0.0949 µM) of 48.5%. The viability, T/C (second compound 0.0316 µM, first compound 0.3 µM) was 51.8%, the viability, T/C (second compound 0.0316 µM, first compound 0.949 µM) was 61.9% and the viability, T/C (second compound 0.0316 µM, first compound 3 µM) was 63.6%. For the same compound, the viability, T/C (second compound 0.1 µM, first compound 0.00949 µM) was 56.8%, the viability, T/C (second compound 0.1 µM, first compound 0.03 µM) was 58.3% and the viability, T/C (second compound 0.1 µM, first compound 0.0949 µM) was 53.6%. For the same compound, the viability, T/C (second compound 0.1 µM, first compound 0.3 µM) was 46.4%, the viability, T/C (second compound 0.1 µM, first compound 0.949 µM) was 53% and the viability, T/C (second compound 0.1 µM, first compound 3 µM) was 65.4%. The viability, T/C (second compound 0.316 µM, first compound 0.00949 µM) was 53.3%, the viability, T/C (second compound 0.316 µM, first compound 0.03 µM) was 43.9% and the viability, T/C (second compound 0.316 µM, first compound 0.0949 µM) was 51.4%. For the same compound, the viability, T/C (second compound 0.316 µM, first compound 0.3 µM) was 53.4%, the viability, T/C (second compound 0.316 µM, first compound 0.949 µM) was 57% and the viability, T/C (second compound 0.316 µM, first compound 3 µM) was 69.5%. For the same compound, the viability, T/C (second compound 1 µM, first compound 0.00949 µM) was 59.8%, the viability, T/C (second compound 1 µM, first compound 0.03 µM) was 46.4% and the viability, T/C (second compound 1 µM, first compound 0.0949 µM) was 50.6%. It also gave a viability, T/C (second compound 1 µM, first compound 0.3 µM) of 51.9%, a viability, T/C (second compound 1 µM, first compound 0.949 µM) of 56.8% and a viability, T/C (second compound 1 µM, first compound 3 µM) of 65.7%. The viability, T/C (second compound 3.16 µM, first compound 0.00949 µM) was 56.1%, the viability, T/C (second compound 3.16 µM, first compound 0.03 µM) was 46.7% and the viability, T/C (second compound 3.16 µM, first compound 0.0949 µM) was 46.4%. For the same compound, the viability, T/C (second compound 3.16 µM, first compound 0.3 µM) was 47.8%, the viability, T/C (second compound 3.16 µM, first compound 0.949 µM) was 74.8% and the viability, T/C (second compound 3.16 µM, first compound 3 µM) was 66.1%. It also gave a viability, T/C (second compound 10 µM, first compound 0.00949 µM) of 55.3%, a viability, T/C (second compound 10 µM, first compound 0.03 µM) of 55.8% and a viability, T/C (second compound 10 µM, first compound 0.0949 µM) of 54%. It also gave a viability, T/C (second compound 10 µM, first compound 0.3 µM) of 65.8%, a viability, T/C (second compound 10 µM, first compound 0.949 µM) of 52.6% and a viability, T/C (second compound 10 µM, first compound 3 µM) of 75%.
